Test results as given in US20250019385A1, “SPIROCYCLIC ANNULATED 2-AMINO-3-CYANO THIOPHENES AND DERIVATIVES FOR THE TREATMENT OF CANCER” (Boehringer Ingelheim International GmbH, priority 2023, published 2025).

Experiments:
Ba/F3 cells KRAS G12D = assay: Ba/F3 proliferation assay (KRAS G12D); assay type: cell-based; details: Mus musculus, BaF3, 72 h, AlamarBlue viability
How it was run: (§1)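 Ba/F3 cells retrovirally transduced with KRAS G12 mutant, puromycin-selected, grown IL-3-independent; seeded in RPMI-1640 + 10% FCS without IL-3. Logarithmic compound dose series in duplicate, 72 h at 37° C., AlamarBlue fluorescence as % of DMSO control; IC50 from four-parameter non-linear regression.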

AsPC-1 cells = assay: AsPC-1 CTG proliferation assay (120 h) (pancreatic cancer, G12D); assay type: cell-based; details: Homo sapiens, ASPC1
Description: AsPC-1 cells (ATCC CRL-1682) are dispensed into black 384-well plates, flat and clear bottom (Greiner, PNr. 781091) at a density of 500 cells per well in 60 μl RPMI ATCC-Formulation (PAN P04-18047)+10% FCS (fetal calf serum, HyClone, SH30084.03). Cells are incubated overnight at 37° C. in a humidified tissue culture incubator at 5% CO2. Compounds (10 mM stock in DMSO) are added at logarithmic dose series using the ECHO acoustic liquid handler system (Beckman Coulter), normalizing for added DMSO and including DMSO controls. All compound treatments are performed in technical duplicates. For the TO time point measurement, untreated cells are analyzed at the time of compound addition. Plates are incubated for 120 h, and cell viability is measured using CellTiter-Glo luminescent cell viability reagent (Promega product code G7570). Viability (stated as percent of control) is defined as relative luminescence units RLU of each well divided by the RLU of cells in DMSO controls. IC50 values are determined from viability measurements by non-linear regression using a four-parameter model.
IC50 values of representative compounds according to the invention measured with these assays in the indicated cell lines are presented in Table 46.

Ba/F3 cells KRAS G12C = assay: Ba/F3 proliferation assay (KRAS G12C); assay type: cell-based; details: Mus musculus, BaF3, 72 h, AlamarBlue viability
How it was run: as §1

[1] = biological target: KRAS (G12V)::CRAF protein::protein interaction (Homo sapiens (Human), UniProt P01116, C118S/G12V); assay: KRAS TR-FRET assay (KRAS G12V::CRAF, GTP); assay type: binding
Description: (§2) This assay measures the inhibitory effect of compounds on KRAS::CRAF protein::protein interactions in the presence of GTP using Time-resolved fluorescence energy transfer (TR-FRET).
(§3) The following wildtype or mutant alleles of KRAS and CRAF protein have been used at the given concentrations:
KRAS (G12V) 1-169, C118S, N-terminal 6His-tag, C-terminal avi-tag (Boehringer Ingelheim in house protein prep); final assay concentration 15 nM.
(§4) CRAF Ras binding domain, GST-tag, TEV cleavage site (Boehringer Ingelheim in house protein prep); final assay concentration 15 nM.
(§5) Test compounds dissolved in DMSO were dispensed onto assay plates (Proxiplate 384 PLUS, white, PerkinElmer; 6008289) using an Access Labcyte Workstation with the Labcyte Echo 55x. For the chosen highest assay concentration of 100 μM, 150 nl of compound solution was transferred from a 10 mM DMSO compound stock solution. A series of eleven fivefold dilutions per compound was transferred to the assay plate, compound dilutions were tested in duplicates. DMSO was added as backfill to a total volume of 150 nl.
(§6) The assay runs on a fully automated robotic system. To 150 nl of compound dilution 15 μl of a mix including the respective KRAS allele, CRAF (e.g. KRAS (G12D)::CRAF; final assay concentrations see above), GTP nucleotide (Sigma G8877; final assay concentration 10 μM), Lance Eu—W1024 labeled Streptavidin (PerkinElmer, Cat No AD0063; final assay concentration 1.5 nM) and Anti-GST surelight APC (PerkinElmer, Cat No AD0059G; final assay concentration 30 nM) in assay buffer (1×PBS, 0.1% BSA, 0.05% Tween 20) are added into columns 1-23 and 15 μL of the solution without the respective KRAS allele were added to row 24.
(§7) Plates are kept at room temperature in a darkened incubator. After 60 minutes incubation time the signal is measured in a PerkinElmer Envision HTS Multilabel Reader using the TR-FRET LANCE Ultra specs from PerkinElmer.
(§8) Each plate contains 16 wells of a negative control (diluted DMSO instead of test compound; w respective KRAS allele; column 23) and 16 wells of a positive control (diluted DMSO instead of test compound; w/o respective KRAS allele; column 24).
(§9) IC50 values were calculated and analyzed with Boehringer Ingelheim's MEGALAB 50 application using a 4 parametric logistic model.
(§10) Tables of example compounds disclosed herein contain IC50 values determined using the above assays (see Table 44).

[2] = biological target: KRAS (G12D)::CRAF protein::protein interaction (Homo sapiens (Human), UniProt P01116, G12D); assay: KRAS TR-FRET assay (KRAS G12D::CRAF, GTP); assay type: binding
Description: as §2, §3
KRAS (G12D) 1-169, N-terminal 6His-tag, C-terminal avi-tag (Xtal BioStructures, Inc.); final assay concentration 15 nM,
as §4, §5, §6, §7, §8, §9, §10

[3] = biological target: KRAS (WT)::CRAF protein::protein interaction (Homo sapiens (Human), UniProt P01116); assay: KRAS TR-FRET assay (KRAS WT::CRAF, GTP); assay type: binding
Description: as §2, §3
KRAS (WT) 1-169, N-terminal 6His-tag, C-terminal avi-tag (Boehringer Ingelheim in house protein prep); final assay concentration 15 nM.
as §4, §5, §6, §7, §8, §9, §10

Chain of KRAS (G12D)::CRAF protein::protein interaction (P01116 other isoform, or with tags, fused parts or gaps G12D): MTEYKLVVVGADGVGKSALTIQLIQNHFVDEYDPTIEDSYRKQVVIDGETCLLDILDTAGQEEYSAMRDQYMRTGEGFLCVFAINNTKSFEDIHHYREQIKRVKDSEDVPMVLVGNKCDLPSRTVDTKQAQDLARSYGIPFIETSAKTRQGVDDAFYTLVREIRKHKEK
Chain of KRAS (WT)::CRAF protein::protein interaction (P01116 other isoform, or with tags, fused parts or gaps): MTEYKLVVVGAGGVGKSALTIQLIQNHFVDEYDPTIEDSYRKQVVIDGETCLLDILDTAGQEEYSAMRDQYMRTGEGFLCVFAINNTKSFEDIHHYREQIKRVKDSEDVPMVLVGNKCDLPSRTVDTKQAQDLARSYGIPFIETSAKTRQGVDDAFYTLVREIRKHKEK
Chain of KRAS (G12V)::CRAF protein::protein interaction (P01116 other isoform, or with tags, fused parts or gaps G12V/C118S): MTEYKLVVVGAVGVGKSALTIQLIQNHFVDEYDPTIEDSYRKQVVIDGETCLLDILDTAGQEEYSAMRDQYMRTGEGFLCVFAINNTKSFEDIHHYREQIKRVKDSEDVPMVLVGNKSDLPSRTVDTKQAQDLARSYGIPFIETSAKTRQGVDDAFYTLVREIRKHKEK

| Compound | IC50 (Ba/F3 cells KRAS G12D) [nM] | IC50 (AsPC-1 cells) [nM] | IC50 (Ba/F3 cells KRAS G12C) [nM] | IC50 [1] [nM] | IC50 [2] [nM] | IC50 [3] [nM] |
| --- | --- | --- | --- | --- | --- | --- |
| Cc1cc2c(O[C@@H](C)[C@@H]3CCCN3C)nc(-c3onc4c3CCC[C@@]43CCCc4sc(N)c(C#N)c43)nc2n1[C@@H]1CCOC1 [I-40] | 28 | 500 | 23 | 119 | 182 | 233 |
| Cc1cn([C@@H]2CCOC2)c2nc(-c3onc4c3CCC[C@@]43CCCc4sc(N)c(C#N)c43)nc(O[C@@H](C)[C@@H]3CCCN3C)c12 [I-41] | 106 | 980 | 122 | 405 | 362 | 1830 |
| Cc1nn([C@@H]2CCOC2)c2nc(-c3onc4c3CCC[C@@]43CCCc4sc(N)c(C#N)c43)nc(O[C@@H](C)[C@@H]3CCCN3C)c12 [I-42] | 37 | 1180 | 17 | 115 | 263 | 273 |
| C[C@H](Oc1nc(-c2onc3c2CCC[C@@]32CCCc3sc(N)c(C#N)c32)nc2c1cnn2[C@@H]1CCOC1)[C@@H]1CCCN1C [I-43] | 49 | 1390 | 32 | 149 | 255 | 326 |
| C[C@H](Oc1nc(-c2onc3c2CCC[C@@]32CCCc3sc(N)c(C#N)c32)nc2c1COC[C@]21CCOC1)[C@@H]1CCCN1C [I-54] | 4 | 76 | 2 | 12 | 25 | 33 |
| CO[C@H]1CCN(C)[C@@H]1[C@H](C)Oc1nc(-c2noc3c2CCC[C@@]32CCCc3sc(N)c(C#N)c32)nc2c1n(C)c(=O)n2[C@@H]1CCOC1 [II-1] | 9 | 323 | 4 | 61 | 41 | 54 |
| C[C@H](Oc1nc(-c2noc3c2CCC[C@@]32CCCc3sc(N)c(C#N)c32)nc2c1n(C)c(=O)n2[C@@H]1CCOC1)[C@@H]1CCCN1C [II-2] | 9 | 338 | 4 | 24 | 32 | 52 |
| C[C@H](Oc1nc(-c2noc3c2CCC[C@@]32CCCc3sc(N)c(C#N)c32)nc2c1cnn2[C@@H]1CCOC1)[C@@H]1CCCN1C [II-4] | 16 | 300 | 12 | 50 | 97 | 81 |
| C[C@H](Oc1nc(-c2noc3c2CCC[C@@]32CCCc3sc(N)c(C#N)c32)nc2c1COC[C@]21CCOC1)[C@@H]1CCCN1C [II-8] | 4 | 62 | 2 | 11 | 17 | 24 |
| C[C@H](Oc1nc(-c2noc3c2CCC[C@@]32CCCc3sc(N)c(C#N)c32)nc2c1COC[C@@]21CCOC1)[C@@H]1CCCN1C [II-9a] | 59 | 1070 | 84 | 142 | 283 | 581 |
| C[C@H](Oc1nc(-c2noc3c2CCC[C@@]32CCCc3sc(N)c(C#N)c32)nc2c1CCO[C@]21CCOC1)[C@@H]1CCCN1C [II-9b] | 8 | 414 | 5 | 35 | 117 | 80 |
